Values of other authors as cited in US9724355B2, “Fulvestrant compositions and methods of use” (SHIMODA BIOTECH (PTY) LTD, priority 2010, dated 2017).

Conditions: cited from earlier work

Molecule | Water Solubility (25° C.) [mg/mL]
CC(O)COC[C@H]1O[C@@H]2O[C@H]3[C@H](O)[C@@H](O)[C@@H](O[C@H]4[C@H](O)[C@@H](O)[C@@H](O[C@H]5[C@H](O)[C@@H](O)[C@@H](O[C@H]6[C@H](O)[C@@H](O)[C@@H](O[C@H]7[C@H](O)[C@@H](O)[C@@H](O[C@H]8[C@H](O)[C@@H](O)[C@@H](O[C@H]1[C@H](O)[C@H]2O)O[C@@H]8COCC(C)O)O[C@@H]7COCC(C)O)O[C@@H]6COCC(C)O)O[C@@H]5COCC(C)O)O[C@@H]4COCC(C)O)O[C@@H]3COCC(C)O (stereo partly drawn) [Hydroxypropyl beta-cyclodextrin] | >750
Methyl beta-cyclodextrin | >750
Sulfobutylether beta-cyclodextrin | >500
